Results as given in patent US20230293517A1, “ANTAGONIST COMPOUNDS” (AdoRx Therapeutics Limited, priority 2020, published 2023).
Read-outs that look alike come from different tables or passages of the source.

Experiments:
[1] = tested on: CD8+T cells in human whole blood; assay: Measurement of pCREB in CD8+T cells in human whole blood; assay type: cell-based; conditions: 3 μM NECA, rolipram
Method: Biological Example—Measurement of pCREB in CD8+T Cells in Human Whole Blood
Heparinised human whole blood was pre-incubated at 37° C. with serial dilutions of A2a antagonists for 20 min. and the phosphodiesterase inhibitor rolipram to amplify the pCREB response. The adenosine receptor agonist NECA is then added at a final concentration of 3 μM and following a 60 min incubation the blood is fixed and red blood cells lysed. White blood cells are isolated, permeabilized and stained with directly conjugated fluorescent antibodies to phospho-CREB (Alexa Fluor 488) and CD8 (Alexa Fluor 647) and the level of phospho-CREB in CD8+T cells is measured by FACS using a BD Accuri C6 Flow Cytometer.

[2] = target: human Adenosine A2a receptor (Homo sapiens (Human), UniProt P29274); assay: Adenosine receptor TR-FRET binding assay (A2a); conditions: inhibition of binding of 100 nM CA200645, CHO cell membranes
Procedure, shortened: (§1)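 TR-FRET displacement of fluorescent XAC (CA200645; 30 nM for A2b, 100 nM for A1/A2a/A3) from terbium-labelled human receptors in CHO membranes, 2 h at room temperature with saponin, 1% DMSO. Non-specific binding with 10 μM XAC; 665/620 nm ratio; Ki from IC50 by Cheng–Prusoff.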

[3] = target: human Adenosine A1 receptor (Homo sapiens (Human), UniProt P30542); assay: Adenosine receptor TR-FRET binding assay (A1); conditions: inhibition of binding of 100 nM CA200645, CHO cell membranes
Procedure, shortened: as §1

[4] = target: human Adenosine A2b receptor (Homo sapiens (Human), UniProt P29275); assay: Adenosine receptor TR-FRET binding assay (A2b)
Procedure, shortened: as §1

[5] = target: human Adenosine A3 receptor (Homo sapiens (Human), UniProt P0DMS8); assay: Adenosine receptor TR-FRET binding assay (A3); conditions: inhibition of binding of 100 nM CA200645, CHO cell membranes
Procedure, shortened: as §1

human PBMCs = assay: CD3/CD28 stimulated IL-2 release NECA reversal assay in human PBMCs; assay type: cell-based; conditions: PBMC, 1 uM NECA, 24 hours, IL-2 in culture supernatant
Method: Biological Example—CD3/CD28 Stimulated IL-2 Release NECA Reversal Assay in Human PBMCs
Blood is drawn from healthy volunteers using sodium citrate as the anticoagulant (0.3% final concentration). After centrifugation of the blood over Histopaque-1077, PBMCs are collected from the Histopaque/plasma interface and washed twice in PBS (300 g for 10 mins at room temp). Cells are plated at 50,000 cells/well in 150 μl RPMI/10% FCS in 96-well cell culture plates that have been precoated with 1 ug/ml CD3 antibody. 50 μl diluted compound mix is added to the cells, to obtain final concentrations of 1 ug/ml CD28 antibody, 1 uM NECA and 0.003-10 μM adenosine receptor antagonist. Assay plates are incubated for 24 hours at 37° C. in a humidified incubator. Culture supernatant is tested for IL-2 levels using the human IL-2 Tissue Culture Kit (Meso Scale Discovery). Data for dose-response curves is calculated as % inhibition with 100% inhibition defined from no agonist control wells (+CD3/28-NECA)

[6] = TR-FRET, inhibition of binding of 30 nM CA200645, CHO cell membranes

human Adenosine A2a receptor, sequence (P29274 whole entry): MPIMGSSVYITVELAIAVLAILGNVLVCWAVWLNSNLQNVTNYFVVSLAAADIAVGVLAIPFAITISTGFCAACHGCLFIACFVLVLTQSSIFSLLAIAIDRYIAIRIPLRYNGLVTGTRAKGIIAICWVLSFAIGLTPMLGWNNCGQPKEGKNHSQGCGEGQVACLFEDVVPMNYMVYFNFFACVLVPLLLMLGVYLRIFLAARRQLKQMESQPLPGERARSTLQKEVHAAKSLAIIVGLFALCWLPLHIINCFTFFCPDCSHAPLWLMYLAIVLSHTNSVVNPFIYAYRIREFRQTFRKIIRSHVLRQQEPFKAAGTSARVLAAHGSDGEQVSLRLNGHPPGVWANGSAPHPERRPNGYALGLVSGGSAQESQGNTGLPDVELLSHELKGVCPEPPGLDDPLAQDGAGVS
human Adenosine A2b receptor, sequence (P29275 whole entry): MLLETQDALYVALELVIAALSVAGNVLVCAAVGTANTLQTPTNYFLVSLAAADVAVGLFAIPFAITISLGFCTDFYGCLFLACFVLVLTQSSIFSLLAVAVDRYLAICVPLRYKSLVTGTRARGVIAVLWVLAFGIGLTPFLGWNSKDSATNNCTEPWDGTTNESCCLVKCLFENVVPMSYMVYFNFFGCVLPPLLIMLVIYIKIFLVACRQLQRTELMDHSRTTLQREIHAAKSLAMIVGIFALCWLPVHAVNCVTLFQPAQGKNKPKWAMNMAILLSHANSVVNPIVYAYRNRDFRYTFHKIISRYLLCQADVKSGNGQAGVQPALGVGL
human Adenosine A1 receptor, sequence (P30542 whole entry): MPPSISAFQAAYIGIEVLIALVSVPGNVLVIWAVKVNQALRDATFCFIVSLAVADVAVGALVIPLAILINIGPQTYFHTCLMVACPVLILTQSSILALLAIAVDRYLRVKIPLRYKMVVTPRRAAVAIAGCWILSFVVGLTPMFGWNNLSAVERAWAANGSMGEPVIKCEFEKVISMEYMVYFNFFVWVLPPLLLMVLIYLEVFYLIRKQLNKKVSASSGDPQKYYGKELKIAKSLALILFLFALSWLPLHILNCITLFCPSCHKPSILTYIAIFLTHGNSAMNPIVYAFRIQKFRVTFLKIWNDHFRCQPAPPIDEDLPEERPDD
human Adenosine A3 receptor, sequence (P0DMS8 whole entry): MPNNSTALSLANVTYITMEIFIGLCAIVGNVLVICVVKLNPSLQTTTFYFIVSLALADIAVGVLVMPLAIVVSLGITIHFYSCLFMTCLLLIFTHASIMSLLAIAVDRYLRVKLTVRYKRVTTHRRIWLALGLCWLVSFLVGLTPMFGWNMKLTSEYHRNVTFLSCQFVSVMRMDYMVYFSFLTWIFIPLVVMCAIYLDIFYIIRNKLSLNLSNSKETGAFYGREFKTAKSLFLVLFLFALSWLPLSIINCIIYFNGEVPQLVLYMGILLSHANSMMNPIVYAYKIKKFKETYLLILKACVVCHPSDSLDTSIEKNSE

Row | IC50 [1] | Ki [2] | Ki [3] | Ki [4, 6] | Ki [5] | Ki [4] | SMILES | IC50 (human PBMCs)
1 | 10 nM | 0.42 nM | 19 nM | 1.2 nM |  |  | Cc1cc(-c2sc(NC(=O)N3CC4(COC4)C3)nc2-c2cccc(C#N)c2)cc([C@@H](C)O)n1 (single isomer, unassigned) [Example 12.3b, N-[4-(3-Cyanophenyl)-5-[2-[(1R)-1-hydroxyethyl]-6-methyl-4-pyridyl]thiazol-2-yl]-2-oxa-6-azaspiro[3.3]heptane-6-carboxamide or N-[4-(3-cyanophenyl)-5-[2-[(1S)-1-hydroxyethyl]-6-methyl-4-pyridyl]thiazol-2-yl]-2-oxa-6-azaspiro[3.3]heptane-6-carboxamide] | 
2 | 140 nM |  |  |  |  |  | Cc1cc(-c2sc(NC(=O)N3CC4(CCOCC4)C3)nc2-c2cccc(C#N)c2)cc(C)n1 [Example 6.54, N-[4-(3-Cyanophenyl)-5-(2,6-dimethyl-4-pyridyl)thiazol-2-yl]-7-oxa-2-azaspiro[3.5]nonane-2-carboxamide] | 3.3 nM
3 |  | 0.13 nM | 6 nM | 1.1 nM | 537 nM |  | Cc1cc(-c2sc(NC(=O)N3CC4(COC4)C3)nc2-c2cccc(C#N)c2)cc(C(C)C)n1 [Example 16.8] | 
4 |  | 0.57 nM | 43 nM | 1.7 nM | 254 nM |  | N#Cc1cccc(-c2nc(NC(=O)N3CC4(COC4)C3)sc2-c2cc(Cl)nc(Cl)c2)c1 [Example 16.10] | 
5 | 290 nM | 1.86 nM | 137 nM | 7.9 nM |  |  | CC(=O)Nc1cc(-c2sc(NC(=O)N3CC4(COC4)C3)nc2-c2cccc(C#N)c2)cc(C)n1 [Example 19, N-[5-(2-Acetamido-6-methyl-4-pyridyl)-4-(3-cyanophenyl)thiazol-2-yl]-2-oxa-6-azaspiro[3.3]heptane-6-carboxamide] | 
6 |  | 6.85 nM | 133 nM | 39.1 nM | 2540 nM |  | CC(=O)NCc1cc(-c2sc(NC(=O)N3CC4(COC4)C3)nc2-c2cccc(C#N)c2)cc(C)n1 [Example 20, N-[5-[2-(Acetamidomethyl)-6-methyl-4-pyridyl]-4-(3-cyanophenyl)thiazol-2-yl]-2-oxa-6-azaspiro[3.3]heptane-6-carboxamide] | 
7 |  | 0.2 nM | 7 nM | 3.2 nM | 2060 nM |  | COC(C)c1cc(-c2sc(NC(=O)N3CC4(COC4)C3)nc2-c2cccc(C#N)c2)cc(C)n1 (stereo not shown) [Example 22, N-[4-(3-Cyanophenyl)-5-[2-(1-methoxyethyl)-6-methyl-4-pyridyl]thiazol-2-yl]-2-oxa-6-azaspiro[3.3]heptane-6-carboxamide] | 

Second part, the compound before the results:

Row | SMILES | IC50 [1] | Ki [2] | Ki [3] | Ki [4, 6] | Ki [5] | Ki [4] | IC50 (human PBMCs)
8 | Cc1cc(-c2sc(NC(=O)N3CC[C@H](S(C)(=O)=O)C3)nc2-c2cccc(C#N)c2)cc(C)n1 [Example 6.1, (3S)-N-[4-(3-Cyanophenyl)-5-(2,6-dimethyl-4-pyridyl)thiazol-2-yl]-3-methylsulfonyl-pyrrolidine-1-carboxamide] | 150 nM | 1.05 nM |  | 2.1 nM | 228 nM |  | 3.6 nM
9 | Cc1cc(-c2sc(NC(=O)N3CC[C@@H](S(C)(=O)=O)C3)nc2-c2cccc(C#N)c2)cc(C)n1 [Example 6.9, (3R)-N-[4-(3-Cyanophenyl)-5-(2,6-dimethyl-4-pyridyl)thiazol-2-yl]-3-methylsulfonyl-pyrrolidine-1-carboxamide] | 160 nM | 0.88 nM |  |  | 412 nM | 0.7 nM | 4.3 nM
10 | Cc1cc(-c2sc(NC(=O)N3CCN4C(=O)OCC4C3)nc2-c2cccc(C#N)c2)cc(C)n1 (stereo not shown) [Example 6.13, N-[4-(3-Cyanophenyl)-5-(2,6-dimethyl-4-pyridyl)thiazol-2-yl]-3-oxo-5,6,8,8a-tetrahydro-1H-oxazolo[3,4-a]pyrazine-7-carboxamide] | 140 nM | 0.4 nM | 23 nM | 3.4 nM |  |  | 3.7 nM
11 | Cc1cc(-c2sc(NC(=O)N3CCOC(C(C)(C)O)C3)nc2-c2cccc(C#N)c2)cc(C)n1 (stereo not shown) [Example 6.47, N-[4-(3-Cyanophenyl)-5-(2,6-dimethyl-4-pyridyl)thiazol-2-yl]-2-(1-hydroxy-1-methyl-ethyl)morpholine-4-carboxamide] | 80 nM | 0.37 nM | 38 nM |  |  | 2.5 nM | 1.9 nM
12 | Cc1cc(-c2sc(NC(=O)N3CCC4(CC3)CNC(=O)N4C)nc2-c2cccc(C#N)c2)cc(C)n1 [Example 6.51, N-[4-(3-Cyanophenyl)-5-(2,6-dimethyl-4-pyridyl)thiazol-2-yl]-1-methyl-2-oxo-1,3,8-triazaspiro[4.5]decane-8-carboxamide] | 320 nM |  |  |  |  |  | 6.1 nM
13 | Cc1cc(-c2sc(NC(=O)N3CC4(CNC(=O)C4)C3)nc2-c2cccc(C#N)c2)cc(C)n1 [Example 6.55, N-[4-(3-Cyanophenyl)-5-(2,6-dimethyl-4-pyridyl)thiazol-2-yl]-6-oxo-2,7-diazaspiro[3.4]octane-2-carboxamide] | 10 nM |  |  |  |  |  | 2.2 nM
14 | Cc1cc(-c2sc(NC(=O)N3CC4(CNC(=O)N4)C3)nc2-c2cccc(C#N)c2)cc(C)n1 [Example 6.57, N-[4-(3-Cyanophenyl)-5-(2,6-dimethyl-4-pyridyl)thiazol-2-yl]-6-oxo-2,5,7-triazaspiro[3.4]octane-2-carboxamide] | 60 nM |  |  |  |  |  | 2.6 nM
15 | Cc1cc(-c2sc(NC(=O)N3CCC4(CCCC(=O)N4)CC3)nc2-c2cccc(C#N)c2)cc(C)n1 [Example 6.58, N-[4-(3-Cyanophenyl)-5-(2,6-dimethyl-4-pyridyl)thiazol-2-yl]-2-oxo-1,9-diazaspiro[5.5]undecane-9-carboxamide] | 360 nM |  |  |  |  |  | 8.5 nM
16 | Cc1cc(-c2sc(NC(=O)N3CCC(C)(C#N)CC3)nc2-c2cccc(C#N)c2)c(F)c(C)n1 [Example 6.66, 4-Cyano-N-[4-(3-cyanophenyl)-5-(3-fluoro-2,6-dimethyl-4-pyridyl)thiazol-2-yl]-4-methyl-piperidine-1-carboxamide] | 300 nM |  |  |  |  |  | 4.3 nM
17 | Cc1cc(-c2sc(NC(=O)N3CC(C)(O)C3)nc2-c2cccc(C#N)c2)c(F)c(C)n1 [Example 6.67, N-[4-(3-Cyanophenyl)-5-(3-fluoro-2,6-dimethyl-4-pyridyl)thiazol-2-yl]-3-hydroxy-3-methyl-azetidine-1-carboxamide] | 250 nM |  |  |  |  |  | 10.6 nM
18 | Cc1cc(-c2sc(NC(=O)N3CC[C@H]3CO)nc2-c2cccc(C#N)c2)cc(C)n1 [Example 6.73, (2S)-N-[4-(3-Cyanophenyl)-5-(2,6-dimethyl-4-pyridyl)thiazol-2-yl]-2-(hydroxymethyl)azetidine-1-carboxamide] | 200 nM |  |  |  |  |  | 13.5 nM
19 | Cc1cc(-c2sc(NC(=O)N3CCC(C)(O)CC3)nc2-c2cccc(C#N)c2)cc(C)n1 [Example 6.96, N-[4-(3-Cyanophenyl)-5-(2,6-dimethyl-4-pyridyl)thiazol-2-yl]-4-hydroxy-4-methyl-piperidine-1-carboxamide] | 30 nM | 0.53 nM | 10 nM | 1.8 nM | 502 nM |  | 
20 | Cc1cc(-c2sc(NC(=O)N3CCN[C@@H](C(F)(F)F)C3)nc2-c2cccc(C#N)c2)cc(C)n1 [Example 13.13, (3R)-N-[4-(3-Cyanophenyl)-5-(2,6-dimethyl-4-pyridyl)thiazol-2-yl]-3-(trifluoromethyl)piperazine-1-carboxamide] | 110 nM | 0.48 nM | 19 nM | 8 nM | 871 nM |  | 
